Like-named read-outs stand apart in the source and are kept apart here.

The target in this experiment is NR1/NR2A (Homo sapiens (Human), UniProt Q05586+Q12879). In words: FDSS Ca2+ influx inhibition assay in HEK293 cells expressing NR1/NR2A. In kind it is cell-based. Particulars: 3 μM glutamate, 3 μM glycine, 1 mM Ca2+. A digest of the protocol: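 Fluo-8-loaded HEK293 NR1/NR2A cells preincubated 10 min with compound at 10 μM final (0.1% DMSO) in Ca2+/Mg2+-free HBSS with 20 mM HEPES. Stimulated with 3 μM glutamate, 3 μM glycine, 1 mM Ca2+; FDSS recording for 3 min, end/baseline fluorescence ratio compared with MK801.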

[1] abbreviates: inhibition relative to MK801, read-out: NR2A IC50.

Chain of NR1/NR2A (Q12879 23-1464, other chains not shown): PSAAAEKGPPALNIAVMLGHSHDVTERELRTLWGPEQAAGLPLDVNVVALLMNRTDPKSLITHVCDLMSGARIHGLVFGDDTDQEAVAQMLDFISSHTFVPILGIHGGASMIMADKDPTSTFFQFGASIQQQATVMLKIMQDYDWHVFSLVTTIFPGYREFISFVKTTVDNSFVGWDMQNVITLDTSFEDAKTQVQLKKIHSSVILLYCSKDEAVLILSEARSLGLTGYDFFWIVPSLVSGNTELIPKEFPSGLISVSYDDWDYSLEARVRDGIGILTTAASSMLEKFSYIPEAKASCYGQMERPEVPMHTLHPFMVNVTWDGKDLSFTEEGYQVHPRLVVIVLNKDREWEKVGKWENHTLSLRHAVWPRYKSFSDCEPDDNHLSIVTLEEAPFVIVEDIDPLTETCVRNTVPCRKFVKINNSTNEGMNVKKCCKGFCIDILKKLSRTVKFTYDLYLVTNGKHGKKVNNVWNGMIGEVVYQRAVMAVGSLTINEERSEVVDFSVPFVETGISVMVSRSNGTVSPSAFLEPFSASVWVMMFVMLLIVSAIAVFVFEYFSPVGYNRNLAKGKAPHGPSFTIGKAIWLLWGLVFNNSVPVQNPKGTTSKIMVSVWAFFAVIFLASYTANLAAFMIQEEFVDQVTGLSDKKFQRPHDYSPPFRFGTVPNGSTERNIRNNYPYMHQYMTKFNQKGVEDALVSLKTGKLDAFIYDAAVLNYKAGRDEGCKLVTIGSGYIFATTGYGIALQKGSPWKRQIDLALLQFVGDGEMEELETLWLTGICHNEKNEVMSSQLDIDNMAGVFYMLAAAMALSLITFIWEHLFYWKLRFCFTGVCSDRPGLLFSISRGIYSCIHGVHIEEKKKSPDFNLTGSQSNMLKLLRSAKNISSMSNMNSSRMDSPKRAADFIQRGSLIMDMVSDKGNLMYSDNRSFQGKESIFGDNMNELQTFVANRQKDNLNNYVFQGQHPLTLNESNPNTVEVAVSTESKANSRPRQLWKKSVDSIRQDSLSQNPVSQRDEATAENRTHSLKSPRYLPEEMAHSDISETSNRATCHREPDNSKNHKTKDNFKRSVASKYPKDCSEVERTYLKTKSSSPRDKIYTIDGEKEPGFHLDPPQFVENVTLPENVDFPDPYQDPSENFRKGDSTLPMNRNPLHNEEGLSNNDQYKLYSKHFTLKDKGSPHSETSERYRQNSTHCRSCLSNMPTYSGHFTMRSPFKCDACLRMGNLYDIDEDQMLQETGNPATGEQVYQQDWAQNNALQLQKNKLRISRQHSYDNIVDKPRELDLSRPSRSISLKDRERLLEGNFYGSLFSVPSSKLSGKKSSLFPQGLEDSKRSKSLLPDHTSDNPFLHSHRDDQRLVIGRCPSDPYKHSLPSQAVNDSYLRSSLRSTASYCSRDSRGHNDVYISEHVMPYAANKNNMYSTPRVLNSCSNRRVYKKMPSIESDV

Turning to `Cc1ncc(CNC(=O)c2cnc(CNS(=O)(=O)c3cc(Cl)ccc3F)cn2)s1` [5-(5-chloro-2-fluorobenzenesulfon-amidomethyl)-N-[(2-methyl-1,3-thiazol-5-yl)methyl]pyrazine-2-carboxamide], the IC50 was 10 µM under setting [1] and > 10 µM (read-out: Binned Activity).
The like results for `Cc1ncc(CNC(=O)c2ccc(CNS(=O)(=O)c3cc(Cl)ccc3F)cn2)s1` [5-(5-chloro-2-fluorobenzenesulfon-amidomethyl)-N-[(2-methyl-1,3-thiazol-5-yl)methyl]pyridine-2-carboxamide] were, in that order, 10 µM and > 10 µM.
The like results for `Cc1ncc(CNC(=O)c2ccc(CNS(=O)(=O)c3ccc(Cl)s3)cn2)s1` [5-(5-chlorothiophene-2-sulfonamidomethyl)-N-[(2-methyl-1,3-thiazol-5-yl)methyl]pyridine-2-carboxamide] were, in that order, 10 µM and > 10 µM.
For `Cc1ncc(CNC(=O)c2ccc(CNS(=O)(=O)c3ccc(Cl)nc3)cn2)s1` [5-(6-chloropyridine-3-sulfonamidomethyl)-N-[(2-methyl-1,3-thiazol-5-yl)methyl]pyridine-2-carboxamide], in that order: 10 µM and > 10 µM.
Regarding `Cc1ncc(CNC(=O)c2ccc(CNS(=O)(=O)c3ccc(Cl)c4nonc34)cn2)s1` [5-(7-chloro-2,1,3-benzoxadiazole-4-sulfonamidomethyl)-N-[(2-methyl-1,3-thiazol-5-yl)methyl]pyridine-2-carboxamide], the IC50 is 10 µM under setting [1] and > 10 µM (read-out: Binned Activity).
For `Cc1ncc(CNC(=O)c2ccc(CNS(=O)(=O)c3ccoc3)cn2)s1` [5-(furan-3-sulfonamidomethyl)-N-[(2-methyl-1,3-thiazol-5-yl)methyl]pyridine-2-carboxamide], in that order: 10 µM and > 10 µM.
For `Cc1ncc(CNC(=O)c2cnc(CNC(=O)c3ccc(Cl)cc3Cl)cn2)s1` [5-{[(2,4-dichlorophenyl)form-amido]methyl}-N-[(2-methyl-1,3-thiazol-5-yl)methyl]pyrazine-2-carboxamide], in that order: 10 µM and > 10 µM.
Turning to `Cc1ncc(CNC(=O)c2ccc(CNC(=O)c3ccc(Cl)cc3Cl)cn2)s1` [5-{[(2,4-dichlorophenyl)form-amido]methyl}-N-[(2-methyl-1,3-thiazol-5-yl)methyl]pyridine-2-carboxamide], the IC50 by setting is: under setting [1], 10 µM; (read-out: Binned Activity) > 10 µM.
For `Cc1ncc(CNC(=O)c2cnc(CNC(=O)c3ccc(Cl)c(Cl)c3)cn2)s1` [5-{[(3,4-dichlorophenyl)form-amido]methyl}-N-[(2-methyl-1,3-thiazol-5-yl)methyl]pyrazine-2-carboxamide], in that order: 10 µM and > 10 µM.
For `Cc1ncc(CNC(=O)c2ccc(CNC(=O)c3ccc(Cl)c(Cl)c3)cn2)s1` [5-{[(3,4-dichlorophenyl)form-amido]methyl}-N-[(2-methyl-1,3-thiazol-5-yl)methyl]pyridine-2-carboxamide], in that order: 10 µM and > 10 µM.
As to `Cc1ncc(CNC(=O)c2cnc(CNC(=O)c3cc(F)cc(F)c3)c(C)n2)s1` [5-{[(3,5-difluorophenyl)form-amido]methyl}-6-methyl-N-[(2-methyl-1,3-thiazol-5-yl)methyl]pyrazine-2-carboxamide], the IC50 is 10 µM under setting [1] and > 10 µM (read-out: Binned Activity).
The like results for `Cc1ncc(CNC(=O)c2cnc(CNC(=O)c3cc(F)cc(F)c3)cn2)s1` [5-{[(3,5-difluorophenyl)form-amido]methyl}-N-[(2-methyl-1,3-thiazol-5-yl)methyl]pyrazine-2-carboxamide] were, in that order, 10 µM and > 10 µM.
For `Cc1ncc(CNC(=O)c2ccc(CNC(=O)c3cc(F)cc(F)c3)cn2)s1` [5-{[(3,5-difluorophenyl)form-amido]methyl}-N-[(2-methyl-1,3-thiazol-5-yl)methyl]pyridine-2-carboxamide], in that order: 10 µM and > 10 µM.

The values above are taken from US9963434B2, “N-arylmethyl sulfonamide negative modulators of NR2A” (LUC THERAPEUTICS, priority 2013, dated 2018).
